From publication PMC7842083 (Molecular pharmaceutics, 2020)
Where two headings read alike, the source gives them in different places.

How the values were obtained:
[1] = 120 min, mean ± SD
in vivo = conditions: female, po
[2] = for time at which plasma concentrations reached a maximum: oral administration
in vitro = conditions: pH 6; for Papp at 120 min, 0.1 µCi/mL: APP/PS1, mouse; for Papp at 120 min: WT, mouse
[3] = oral administration; cited from earlier work

Cn1c(=O)c2c(ncn2C)n(C)c1=O [Caffeine, caffeine]
% of initial amount at 2 h (absorbed through jejunal tissue) ([1]; jejunum from APP/PS1 mice, listed as 14C-Caffeine): 0.46 ± 0.14%
% of initial amount at 2 h (absorbed through jejunal tissue) ([1]; jejunum from APP/PS1 mice, listed as 14C-caffeine): 0.46%
% of initial amount at 2 h (absorbed through jejunal tissue) ([1]; jejunum from WT mice, listed as 14C-Caffeine): 0.40 ± 0.09%
% of initial amount at 2 h (absorbed through jejunal tissue) ([1]; jejunum from WT mice, listed as 14C-caffeine): 0.40%
Kp (in vivo; APP/PS1 (B6C3-Tg (APPswe, PSEN1dE9)85Dbo/Mmjax), mouse): 0.63 to 2.82
Kp (in vivo; WT littermates of APP/PS1, mouse): 1.07 to 2.78
time post-dose at which Cmax appeared ([2]; oral dose of 5 mg/kg, present study): 0.5 h
Papp at 120 min, 0.1 µCi/mL (in vitro): 27.2 ± 13.8 ×10⁻⁶ cm/s
Papp at 120 min (in vitro): 31.4 ± 10.1 ×10⁻⁶ cm/s

CN1C(=O)CN=C(c2ccccc2)c2cc(Cl)ccc21 [Diazepam, diazepam]
% of initial amount at 2 h (absorbed through jejunal tissue) ([1]; jejunum from APP/PS1 mice, listed as 3H-Diazepam): 0.52 ± 0.12%
% of initial amount at 2 h (absorbed through jejunal tissue) ([1]; jejunum from APP/PS1 mice, listed as 3H-diazepam): 0.52%
% of initial amount at 2 h (absorbed through jejunal tissue) ([1]; jejunum from WT mice, listed as 3H-Diazepam): 0.42 ± 0.12%
% of initial amount at 2 h (absorbed through jejunal tissue) ([1]; jejunum from WT mice, listed as 3H-diazepam): 0.42%

C[C@H]1O[C@@H](O[C@H]2[C@@H](O)C[C@H](O[C@H]3[C@@H](O)C[C@H](O[C@H]4CC[C@@]5(C)[C@H](CC[C@@H]6[C@@H]5C[C@@H](O)[C@]5(C)[C@@H](C7=CC(=O)OC7)CC[C@]65O)C4)O[C@@H]3C)O[C@@H]2C)C[C@H](O)[C@@H]1O [Digoxin, digoxin]
% of initial amount at 2 h (absorbed through jejunal tissue) ([1]; jejunum from APP/PS1 mice, listed as 3H-Digoxin): 0.22 ± 0.11 %
% of initial amount at 2 h (absorbed through jejunal tissue) ([1]; jejunum from APP/PS1 mice, listed as 3H-digoxin): 0.22 ± 0.11%
% of initial amount at 2 h (absorbed through jejunal tissue) ([1]; jejunum from WT mice, listed as 3H-Digoxin): 0.85 ± 0.30%
% of initial amount at 2 h (absorbed through jejunal tissue) ([1]; jejunum from WT mice, listed as 3H-digoxin): 0.85 ± 0.3%
time at which plasma concentrations reached a maximum ([2]; APP/PS1 mice): 0.5 h
time at which plasma concentrations reached a maximum ([2]; WT mice): 0.5 h
Papp at 120 min, 0.1 µCi/mL (in vitro): 14.5 ± 11 ×10⁻⁶ cm/s
Papp at 120 min (in vitro): 64.2 ± 39.4 ×10⁻⁶ cm/s

CCCCC(=O)N(Cc1ccc(-c2ccccc2-c2nnn[nH]2)cc1)[C@H](C(=O)O)C(C)C [Valsartan, valsartan]
time at which plasma concentrations reached a maximum ([2]; APP/PS1 mice): 1 h
time at which plasma concentrations reached a maximum ([2]; WT mice): 1 h
Papp at 120 min (in vitro): 55.8 ± 16.7 ×10⁻⁶ cm/s

OC[C@@H](O)[C@@H](O)[C@H](O)[C@H](O)CO [^14C-Mannitol, mannitol]
% of initial amount at 2 h (absorbed through jejunal tissue) ([1]; jejunum from APP/PS1 mice): 0.12 ± 0.04 %
% of initial amount at 2 h (absorbed through jejunal tissue) ([1]; jejunum from WT mice): 0.17 ± 0.05%
Papp at 120 min, 0.1 µCi/mL (in vitro): 6 ± 3.4 ×10⁻⁶ cm/s
Papp at 120 min (in vitro): 10.7 ± 3.7 ×10⁻⁶ cm/s

CCN(C)C(=O)Oc1cccc([C@H](C)N(C)C)c1 [rivastigmine]
plasma concentrations in people with AD compared to healthy volunteers [3]: significantly higher
